Laboratory results from ChEMBL document CHEMBL1201862, “PubChem BioAssay data set” (2004).
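Protocol summary: plate cells (96-well), add compound at 5 concentrations, incubate 48 h, interpolate endpoints linearly. Here, GI50 denotes the concentration required for 50% inhibition of growth.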 The source made the active and inactive calls. No stated cut-off is given here; in the data, active = GI50 up to about 1.1 µM and inactive = higher.

How the values were obtained:
Experiment in all cases: DTP human tumour cell line panel, 48 h
SK-MEL-2 = tested on: SK-MEL-2
SNB-19 = tested on: SNB-19
LOX IMVI = tested on: LOX IMVI
HL-60 = tested on: HL-60
786-0 = tested on: 786-0
SF-539 = tested on: SF-539
TK-10 = tested on: TK-10
Malme-3M = tested on: Malme-3M
COLO 205 = tested on: COLO 205
M14 = tested on: M14
MCF7 = tested on: MCF7
MDA-N = tested on: MDA-N
NCI-H23 = tested on: NCI-H23
MOLT-4 = tested on: MOLT-4
SN12C = tested on: SN12C
MDA-MB-435 = tested on: MDA-MB-435
UACC-257 = tested on: UACC-257
PC-3 = tested on: PC-3
IGROV-1 = tested on: IGROV-1
NCI-H460 = tested on: NCI-H460

Measured: GI50

Nc1ncnc2c1ncn2C1OC(COP(=O)(O)CP(=O)(O)O)C(O)C1O (configuration not stated)
inactive: SK-MEL-2 > 100 µM | SNB-19 > 100 µM | LOX IMVI > 100 µM | HL-60 > 100 µM | 786-0 > 100 µM | SF-539 > 100 µM | TK-10 > 100 µM | Malme-3M > 100 µM | COLO 205 94.6 µM | M14 > 100 µM | MCF7 > 100 µM | MDA-N > 100 µM | NCI-H23 > 100 µM | MOLT-4 > 100 µM | SN12C > 100 µM | MDA-MB-435 > 100 µM | UACC-257 > 100 µM | PC-3 > 100 µM | IGROV-1 > 100 µM

Cc1c2ccccc2c(C2C3C(=O)N(c4ccc(Br)cc4)C(=O)C3ON2C(C(N)=O)c2ccccc2)c2ccccc12 (configuration not stated)
inactive: NCI-H460 3.56 µM | SK-MEL-2 5.62 µM | SNB-19 4.8 µM | LOX IMVI 4.97 µM | HL-60 3.81 µM | 786-0 5.5 µM | SF-539 4.13 µM | Malme-3M 3.78 µM | COLO 205 1.77 µM | M14 5.69 µM | MCF7 4.43 µM | MDA-N 4.86 µM | NCI-H23 5.56 µM | MOLT-4 4.05 µM | SN12C 5.3 µM | MDA-MB-435 3.13 µM | UACC-257 7.08 µM | PC-3 4.86 µM | IGROV-1 3.4 µM

CCC(C)N1CN(c2ccccc2)C2(CCN(CC3COc4ccccc4O3)CC2)C1=O (configuration not stated)
inactive: SNB-19 23.7 µM | LOX IMVI 23.4 µM | HL-60 14.4 µM | 786-0 18 µM | SF-539 17.8 µM | TK-10 27.5 µM | Malme-3M 18.5 µM | COLO 205 17.7 µM | M14 20.2 µM | MCF7 18.9 µM | MDA-N 25.6 µM | NCI-H23 22.9 µM | MOLT-4 16.1 µM | SN12C 27.7 µM | MDA-MB-435 19.2 µM | UACC-257 23.9 µM | PC-3 26.6 µM | IGROV-1 42.2 µM

COc1ccc(/C=N/NC(=S)Nc2cc(C)ccc2OC)cc1
inactive: SK-MEL-2 19.8 µM | SNB-19 46.1 µM | LOX IMVI 43.8 µM | HL-60 20.3 µM | 786-0 22.7 µM | SF-539 24.5 µM | Malme-3M 25.8 µM | COLO 205 17 µM | M14 23.1 µM | MCF7 22.9 µM | MDA-N 21.1 µM | NCI-H23 29.8 µM | MOLT-4 9.98 µM | SN12C 25.1 µM | MDA-MB-435 25.6 µM | PC-3 34.4 µM | IGROV-1 33.5 µM

CC(C)(Oc1ccc(-c2cccc3ccccc23)cc1)C(=O)O
inactive: NCI-H460 > 100 µM | SK-MEL-2 > 100 µM | SNB-19 > 100 µM | HL-60 3.86 µM | 786-0 > 100 µM | SF-539 > 100 µM | TK-10 > 100 µM | Malme-3M > 100 µM | COLO 205 71 µM | M14 > 100 µM | MCF7 > 100 µM | MDA-N > 100 µM | NCI-H23 > 100 µM | MOLT-4 > 100 µM | SN12C 85.1 µM | MDA-MB-435 > 100 µM | UACC-257 > 100 µM | PC-3 > 100 µM | IGROV-1 > 100 µM

CCOC(=O)/C(C#N)=N\Nc1ccc(-n2c(C)nc3ccc(Br)cc3c2=O)cc1
inactive: NCI-H460 44.7 µM | SK-MEL-2 > 100 µM | SNB-19 76.6 µM | LOX IMVI 36.1 µM | HL-60 21.9 µM | 786-0 83.9 µM | SF-539 87.9 µM | TK-10 > 100 µM | COLO 205 58.3 µM | M14 69.5 µM | MCF7 72.1 µM | MDA-N > 100 µM | NCI-H23 > 100 µM | MOLT-4 27.4 µM | SN12C 63.8 µM | MDA-MB-435 84.1 µM | UACC-257 > 100 µM | PC-3 63.8 µM | IGROV-1 41.9 µM

CCOC(=O)c1nc2cc(F)c(N3CCOCC3)cc2[nH]c1=O
inactive: NCI-H460 > 100 µM | SK-MEL-2 > 100 µM | SNB-19 > 100 µM | HL-60 47.5 µM | 786-0 > 100 µM | SF-539 > 100 µM | TK-10 > 100 µM | Malme-3M > 100 µM | COLO 205 > 100 µM | M14 > 100 µM | MCF7 > 100 µM | MDA-N > 100 µM | NCI-H23 > 100 µM | MOLT-4 > 100 µM | SN12C > 100 µM | MDA-MB-435 > 100 µM | UACC-257 > 100 µM | PC-3 > 100 µM | IGROV-1 80.9 µM

CCOC(=O)C(=O)C(/C(=N/N(C)C)C(=O)Nc1ccc(C)cc1C)c1nc2ccccc2nc1O (configuration not stated)
inactive: NCI-H460 > 100 µM | SK-MEL-2 > 100 µM | SNB-19 > 100 µM | LOX IMVI > 100 µM | HL-60 > 100 µM | 786-0 > 100 µM | SF-539 > 100 µM | TK-10 > 100 µM | Malme-3M > 100 µM | M14 > 100 µM | MCF7 > 100 µM | MDA-N > 100 µM | NCI-H23 > 100 µM | MOLT-4 > 100 µM | SN12C > 100 µM | MDA-MB-435 > 100 µM | UACC-257 > 100 µM | PC-3 > 100 µM | IGROV-1 > 100 µM

Cc1nc(C)c(N2CCN([N+](=O)[O-])CC2)c(O)n1
inactive: NCI-H460 > 100 µM | SNB-19 > 100 µM | LOX IMVI > 100 µM | HL-60 > 100 µM | 786-0 > 100 µM | SF-539 > 100 µM | TK-10 > 100 µM | Malme-3M > 100 µM | COLO 205 > 100 µM | M14 > 100 µM | MCF7 > 100 µM | MDA-N > 100 µM | NCI-H23 > 100 µM | MOLT-4 > 100 µM | SN12C > 100 µM | MDA-MB-435 > 100 µM | UACC-257 > 100 µM | PC-3 > 100 µM | IGROV-1 > 100 µM

COc1ccc(C)cc1Nc1nnc(-c2ccccc2N)s1
inactive: NCI-H460 31 µM | SK-MEL-2 19.5 µM | SNB-19 > 100 µM | LOX IMVI 47.1 µM | HL-60 19.5 µM | 786-0 51.2 µM | SF-539 82.8 µM | Malme-3M 40.6 µM | COLO 205 36.8 µM | M14 40.2 µM | MCF7 37.8 µM | MDA-N 28.9 µM | NCI-H23 34.3 µM | MOLT-4 2.41 µM | SN12C 32 µM | MDA-MB-435 28.6 µM | UACC-257 37.3 µM | PC-3 35 µM | IGROV-1 18 µM
